Laboratory results taken from US20120245107A1, “METHODS OF REDUCING THE PROLIFERATION AND VIABLILITY OF MICROBIAL AGENTS” (Targeted Delivery Technologies Limited, priority 2009, published 2012).
Counter-ions that a name gives are not always drawn. Like-named read-outs stand apart in the source and are kept apart here.

Key:
Type in all cases: cell-based
Aspergillus flavus = experiment: Minimum inhibitory concentration (MIC100), CLSI M38-A2 broth dilution
Protocol: (§1) Antifungal activity of the antifungal formulations of the invention against dermatophytes, as compared to terbinafine hydrochloride alone, is determined in various dermatophytes known to cause onychomycosis, including Trichophyton rubrum, T. mentagrophytes, and Epidermophyton floccosum. Antifungal activity of the antifungal formulations of the invention as compared to terbinafine hydrochloride alone, was determined in various pathogenic fungi, including Aspergillus flavus and Aspergillus fumigatus. Antifungal activity of the antifungal formulations of the invention was measured by the minimum inhibitory concentration (MIC). Antifungal activity can also be measured by minimum fungicidal concentration (MFC).
(§2) Several strains of Aspergillus flavus, Aspergillus fumigatus, and Candida albicans were tested. Trichophyton rubrum MYA4498 and T. mentagrophytes MYA4439, the QC isolates approved by the Clinical and Laboratory Standards Institute (CLSI) for dermatophyte susceptibility testing, can also be tested.
(§3) MIC testing was performed according to the CLSI M38A2 standard for the susceptibility testing of dermatophytes developed at the Center for Medical Mycology (See, Ghannoum et al., 2004, J Clin Microbial. 42(7): 2977-2979 CLSI, Reference Method for Broth Dilution Antifungal Susceptibility Testing of Filamentous Fungi: Approved Standard-Second Edition. CLSI document M38-A2 [ISBN 1-56238-668-9]. CLSI, 940 West Valley Road, Suite 1400, Wayne, Pa. 19087-1898 USA, 2008). Briefly, RPMI was the test medium, incubation temperature and time was 35° C. and 24 hours or 48 hours, respectively, and the inoculum size was 1-3×10^3 conidia/ml. The MIC endpoint was 100% inhibition as compared to the growth control.
(§4) The MIC range, MIC100 (defined as the minimum concentration required to inhibit 100% of the isolates tested), for the antifungal preparations of the invention and comparators was computed. The MFC range, MFC50, MFC90, and MFC100 for the antifungal preparations of the invention and comparators can also be computed.
(§5) In this example, the terbinafine formulation of the invention comprises terbinafine formulated with a phospholipid and a surfactant.

Aspergillus fumigatus = experiment: as above
Protocol: as §1, §2, §3, §4, §5

[1] = system: Trichophyton rubrum MYA4498; experiment: Morphological effects of antifungal preparations on dermatophyte hyphae in vitro (calcofluor white microscopy); conditions: T. rubrum hyphae; for Week 1 Change in morphology If yes, description of change: hydrochloride
Protocol: The morphological changes to dermatophyte hyphae following exposure to an antifungal formulation of the invention, specifically a terbinafine formulation, compared to terbinafine hydrochloride solution in vitro were evaluated.
Trichophyton rubrum MYA4498, one of the quality control isolates approved by the Clinical and Laboratory Standards Institute (CLSI) for dermatophyte susceptibility testing, was used as a test isolate throughout testing, (See, Ghannoum et al., 2004, J Clin Microbiol. 42(7): 2977-2979; Ghannoum et al., J Clin Microbiol. 44: 353-4350. Inoculum containing 3×10^3 conidia/ml of T. rubrum was prepared in RPMI-1640 buffered with MOPS (Hardy Diagnostics, Santa Maria. CA), added to the wells of microtiter plates (100 ul aliquots) and incubated at 35° C. for 2-3 days until good hyphal growth was achieved. Specific concentrations of 1 mg/ml, 3 mg/ml, and 15 mg/ml of terbinafine alone were prepared in RPMI-1640. The terbinafine hydrochloride (1 mg/ml. 3 mg/ml, and 15 mg/ml) and 15 mg/ml of a terbinafine formulation of the invention was added to the wells of the microtiter plates (100 ul aliquots) and re-incubated. Twenty plates for each drug were set up to ensure adequate sample for examination over several weeks; RPMI was added as needed to maintain the volume of each well at 200 ul.
At pre-determined intervals (24, 48, 72, and 96 hours and once weekly thereafter for a total of 12 weeks), a loopful of hyphal growth from the bottom of each well was removed to a glass microscope slide containing a drop of calcofluor white stain (fluorescent KOH) and covered with a cover slip. Slides were examined microscopically under both white light and UV light. Images from a representative field visualized under each light source were be recorded.
Samples showing significant differences in morphology between exposure of a terbinafine formulation vs. terbinafine alone were further examined under Scanning Electron Microscopy (SEM). Preparation of samples for SEM were performed following previously established methodology (see. Chandra et al., 2001. J. Dent. Res. 80:903-908).

[2] = system: Trichophyton rubrum MYA4498; experiment: as above; conditions: T. rubrum hyphae; for Week 1 Change in morphology If yes, description of change: hydrochloride; remark: listed apart in the source

CN(C/C=C/C#CC(C)(C)C)Cc1cccc2ccccc12 [Terbinafine hydrochloride, terbinafine hydrochloride] gave an MIC (Aspergillus flavus; 24 h, A. flavus strain MRL No. 17840, 24 hours, read-out: MIC100 (μg/mL) in 24 hours) of 0.002 µg/mL, an MIC (Aspergillus flavus; 24 h, A. flavus strain MRL No. 17842, 24 hours, read-out: MIC100 (μg/mL) in 24 hours) of 0.002 µg/mL and an MIC (Aspergillus flavus; 24 h, A. flavus strain MRL No. 18736, 24 hours, read-out: MIC100 (μg/mL) in 24 hours) of 6e-05 µg/mL. The MIC (Aspergillus flavus; 24 h, A. flavus strain MRL No. 18743, 24 hours, read-out: MIC100 (μg/mL) in 24 hours) was 0.008 µg/mL, the MIC (Aspergillus flavus; 24 h, A. flavus strain MRL No. 18744, 24 hours, read-out: MIC100 (μg/mL) in 24 hours) was 0.008 µg/mL and the MIC (Aspergillus flavus; 48 h, A. flavus strain MRL No. 17840, 48 hours, read-out: MIC100 (μg/mL) in 48 hours) was 0.004 µg/mL. For the same compound, the MIC (Aspergillus flavus; 48 h, A. flavus strain MRL No. 17842, 48 hours, read-out: MIC100 (μg/mL) in 48 hours) was 0.002 µg/mL, the MIC (Aspergillus flavus; 48 h, A. flavus strain MRL No. 18736, 48 hours, read-out: MIC100 (μg/mL) in 48 hours) was 0.002 µg/mL and the MIC (Aspergillus flavus; 48 h, A. flavus strain MRL No. 18743, 48 hours, read-out: MIC100 (μg/mL) in 48 hours) was 0.015 µg/mL. The MIC (Aspergillus flavus; 48 h, A. flavus strain MRL No. 18744, 48 hours, read-out: MIC100 (μg/mL) in 48 hours) was 0.002 µg/mL, the MIC (Aspergillus fumigatus; 24 h, A. fumigatus strain MRL No. 2456, 24 hours, read-out: MIC100 (μg/mL) in 24 hours) was 0.25 µg/mL and the MIC (Aspergillus fumigatus; 24 h, A. fumigatus strain MRL No. 2471, 24 hours, read-out: MIC100 (μg/mL) in 24 hours) was 0.25 µg/mL. The MIC (Aspergillus fumigatus; 24 h, A. fumigatus strain MRL No. 2574, 24 hours, read-out: MIC100 (μg/mL) in 24 hours) was 0.5 µg/mL, the MIC (Aspergillus fumigatus; 24 h, A. fumigatus strain MRL No. 16621, 24 hours, read-out: MIC100 (μg/mL) in 24 hours) was 0.5 µg/mL and the MIC (Aspergillus fumigatus; 24 h, A. fumigatus strain MRL No. 16629, 24 hours, read-out: MIC100 (μg/mL) in 24 hours) was 0.5 µg/mL. It also gave an MIC (Aspergillus fumigatus; 48 h, A. fumigatus strain MRL No. 2456, 48 hours, read-out: MIC100 (μg/mL) in 48 hours) of 234 µg/mL, an MIC (Aspergillus fumigatus; 48 h, A. fumigatus strain MRL No. 2471, 48 hours, read-out: MIC100 (μg/mL) in 48 hours) of 234 µg/mL and an MIC (Aspergillus fumigatus; 48 h, A. fumigatus strain MRL No. 2574, 48 hours, read-out: MIC100 (μg/mL) in 48 hours) of 234 µg/mL. For the same compound, the MIC (Aspergillus fumigatus; 48 h, A. fumigatus strain MRL No. 16627, 48 hours, read-out: MIC100 (μg/mL) in 48 hours) was 234 µg/mL, the MIC (Aspergillus fumigatus; 48 h, A. fumigatus strain MRL No. 16629, 48 hours, read-out: MIC100 (μg/mL) in 48 hours) was 234 µg/mL and the morphological changes observed ([1]; 3 mg/mL, 24, 48, 72 and 96 hours) was “no morphological changes”. The “Week 1 Change in morphology If yes, description of change” value (from here on “Week 1 Change in morphology If yes”) ([1]; 3 mg/mL) was “no presence of vacuoles within the hyphae”, the “Week 1 Change in morphology If yes” value ([1]; 3 mg/mL, listed as Tcrbinafine) was “no” and the “Week 2 Change in morphology If yes, description of change” value (“Week 2 Change in morphology If yes” for short) ([1]; 3 mg/mL) was “Yes: hyphae under”. The “24 hour Change in morphology If yes, description of change” value (“24 hour Change in morphology If yes” for short) ([1]; 15 mg/mL, 24 hour) was “no”, the “48 hour Change in morphology If yes, description of change” value (from here on “48 hour Change in morphology If yes”) ([1]; 15 mg/mL, 48 hour) was “no” and the “72 hour Change in morphology If yes, description of change” value (from here on “72 hour Change in morphology If yes”) ([1]; 15 mg/mL, 72 hour) was “no”. The “96 hour Change in morphology If yes, description of change” value (from here on “96 hour Change in morphology If yes”) ([1]; 15 mg/mL, 96 hour) was “no”, the “Week 1 Change in morphology If yes” value ([1]; 15 mg/mL, listed as Terbinafine) was “no” and the “Week 1 Change in morphology If yes” value ([1]; 15 mg/mL, listed as terbinafine) was “no presence of vacuoles within the hyphae”. The “Week 2 Change in morphology If yes” value ([1]; 15 mg/mL) was “no”, the morphological changes observed ([2]; 1 μg/mL, 24, 48, 72 and 96 hours) was “no morphological changes” and the “24 hour Change in morphology If yes” value ([2]; 1 μg/mL) was “no”. The “48 hour Change in morphology If yes” value ([2]; 1 μg/mL) was “no”, the “72 hour Change in morphology If yes” value ([2]; 1 μg/mL) was “no” and the “96 hour Change in morphology If yes” value ([2]; 1 μg/mL) was “no”. For the same compound, the “Week 1 Change in morphology If yes” value ([2]; 1 μg/mL, listed as Terbinafine) was “Yes: hyphae under”, the “Week 1 Change in morphology If yes” value ([2]; 1 μg/mL, listed as terbinafine) was “had vacuoles within the hyphae” and the “Week 2 Change in morphology If yes” value ([2]; 1 μg/mL, Week 2) was “Yes: hyphae under”. The “24 hour Change in morphology If yes” value ([2]; 3 mg/mL) was “no”, the “48 hour Change in morphology If yes” value ([2]; 3 mg/mL) was “no” and the “72 hour Change in morphology If yes” value ([2]; 3 mg/mL) was “no”. The “96 hour Change in morphology If yes” value ([2]; 3 mg/mL) was “no”.
